Assay results from US20260297060A1, “COMPOUNDS FOR THE DEGRADATION OF MUTANT BRAF” (C4 THERAPEUTICS, INC., priority 2023, published 2026).
Where two headings read alike, the source gives them in different places.

Test: Example 6 pharmacokinetics assay for PKPD study (plasma, tumor, liver)
Type: in vivo, BALB/c nude mice
Conditions: mouse, po, single dose
Description: For the pharmacokinetic/pharmacodynamic (PKPD) study, compounds were tested in the A375 human melanoma xenografts. Known BRAF inhibitors encorafenib, and dabrafenib were used as positive controls. Encorafenib, dabrafenib, Compound 83, Compound 93, Compound 70, and Compound 54 were administered to BALB/c nude mice bearing A375 tumors on PG-D1 and dosed orally (PO) once. Encorafenib was dosed at 35 mg/kg. Dabrafenib was dosed at 100 mg/kg. Compound 83, Compound 93, Compound 70, and Compound 54 were dosed at 10 mg/kg. The plasma and tumor samples were collected at 1, 6, 12 and 24 hours, and liver samples were collected at 6 hours and 12 hours post the single dose. This study was non-GLP study.
The plasma samples were collected at predetermined time points for PK analysis. The mice were euthanized at predetermined time points post the treatment. The blood samples were collected into the 1.5 mL Eppendorf tubes containing 15 μL of 0.5 M EDTA-K2. And then the anticoagulant blood samples were centrifuged at 2,500 g at 4° C. for 15 minutes. The plasma samples were separated into 2 aliquots. The 1st was used for PK analysis, and the 2nd served as backup. The samples were stored at −80° C. before bioanalysis.
The tumor samples were collected at predetermined time points for PK and WB analysis (B-RAF and p-ERK). The tumor was dissected out and split into 3 parts. The 1st part was used for PK analysis, the 2nd part was used for WB analysis and the last one served as backup for study. The samples were transferred into pre-labeled tubes and quickly froze in liquid nitrogen within 2 minutes after dissection. The samples were stored at −80° C. before bioanalysis.
Liver samples were collected at predetermined time points for PK analysis. The left lobe of the liver was dissected out and split into 2 parts. The 1st part was used for PK analysis and the 2nd part served as the backup for the study. The samples were transferred into pre-labeled tubes and quickly froze in liquid nitrogen within 2 minutes after dissection. The samples were stored at −80° C. before bioanalysis.
For PKPD study, the harvested plasma, tumor and liver were processed for pharmacokinetics analysis by LC/MS/MS with a concentration range of 0.5-1000 ng/mL for Encorafenib and Dabrafenib in plasma, 0.05-100 ng/mL for Encorafenib and Dabrafenib in tumor, 0.2-200 ng/mL for Encorafenib and Dabrafenib in liver, 2.0-2000 ng/mL for compound 93, compound 83, compound 54 and compound 70 in liver, 50.0-50000 ng/mL for compound 83 and compound 70 in plasma, 0.5-1000 ng/mL for compound 83 and compound 70 in tumor, 1.0-2000 ng/mL for compound 93 in plasma, 10.0-20000 ng/mL for compound 54 in plasma, 0.5-500 ng/mL for compound 93 and compound 54 in tumor.

[1] = liver, 100 mg/kg, read-out: Concentration in Liver (mean ± SEM)
[2] = plasma, 100 mg/kg, read-out: Concentration in Plasma (mean ± SEM)
[3] = tumor, 100 mg/kg, read-out: Concentration in Tumor (mean ± SEM)
[4] = liver, 35 mg/kg, read-out: Concentration in Liver (mean ± SEM)
[5] = plasma, 35 mg/kg, read-out: Concentration in Plasma (mean ± SEM)
[6] = tumor, 35 mg/kg, read-out: Concentration in Tumor (mean ± SEM)

concentration at 6 h [1] | concentration at 12 h [1] | concentration at 1 h [2] | concentration at 6 h [2] | concentration at 12 h [2] | concentration at 24 h [2] | concentration at 1 h [3] | concentration at 6 h [3] | concentration at 12 h [3] | concentration at 24 h [3] | SMILES | concentration at 6 h [4] | concentration at 12 h [4] | concentration at 1 h [5] | concentration at 6 h [5] | concentration at 12 h [5] | concentration at 24 h [5] | concentration at 1 h [6] | concentration at 6 h [6] | concentration at 12 h [6] | concentration at 24 h [6]
157 ± 12.3 ng/g | 19.2 ± 5.84 ng/g | 276 ± 17.2 ng/mL | 46.2 ± 5.05 ng/mL | 6.74 ± 2.73 ng/mL | 0.725 ± 0.11 ng/mL | 225 ± 29.2 ng/g | 32.8 ± 0.26 ng/g | 9.59 ± 1.68 ng/g | 1.34 ± 0.369 ng/g | CC(C)(C)c1nc(-c2cccc(NS(=O)(=O)c3c(F)cccc3F)c2F)c(-c2ccnc(N)n2)s1 [Dabrafenib, dabrafenib, reference compound] | – | – | – | – | – | – | – | – | – | –
– | – | – | – | – | – | – | – | – | – | COC(=O)N[C@@H](C)CNc1nccc(-c2cn(C(C)C)nc2-c2cc(Cl)cc(NS(C)(=O)=O)c2F)n1 [Encorafenib, encorafenib, reference compound] | 375 ± 82 ng/g | 12.6 ± 5.14 ng/g | 5720 ± 493 ng/mL | 654 ± 169 ng/mL | 17.3 ± 7.09 ng/mL | 0.895 ng/mL | 1250 ± 161 ng/g | 135 ± 22.8 ng/g | 18.1 ± 7.47 ng/g | 2.63 ± 0.386 ng/g
